The test system of the test is GIC strains (E6 cell, E16 cell). Kind of test: Immunostaining of differentiated and undifferentiated markers in GIC strains. Conditions: Compound 8 10 μM, E6 and E16 cells, FIG. 1. Format: cell-based, human.

As to `O=C(O)c1cc(C2CC2)cnc1Nc1ccc2c(ccn2-c2ccccc2)c1` [Compound 8, 5-cyclopropyl-2-((1-phenyl-1H-indole-5-yl)amino)nicotinic acid], the “expression of differentiation markers (βIII tubulin, GFAP, GC)” value was “increased”; the “positive rate of neural stem cell markers SOX2 and NESTIN” value is given as “remarkable decrease”.
